Test [1] concerns the target T1, nuclear factor-kappa B (NF-kB)-inducing kinase (NIK) (Homo sapiens, UniProt Q99558).
T1 construct: made in house; host or cells: baculovirus-infected insect cells
In words: NIK enzyme inhibition assay (Transcreener ADP fluorescence polarization, NIK ADP-FP). Type of test: biochemical. (Fluorescence polarisation rises when a labelled molecule tumbles more slowly, as on binding a larger partner.)

The subject of test [2] is REL-A (p65) nuclear translocation in HeLa cells. In words: REL-A (p65) nuclear translocation assay in HeLa cells, TNF-α stimulated (classical NF-kB signaling), high content imaging. Type of test: cell-based. The settings on record: compound 4.5 h, then 10 ng/mL TNF-α for 30 minutes, read-out: REL-A HeLa Transloc Assay (IC50). The method, then:
(§1) Several assays were developed to profile the cellular activities of NIK inhibitors.
(§2) (2) A second set of cell assay are used to define the selectivity of NIK inhibitors toward inhibition of classical vs. non-classical NF-kB signaling and rely on quantification of the nuclear translocation of p52 (NF-kB2) and REL-A (p65) using high content cellular imaging. For the p52 (non-classical NF-kB signaling) nuclear translocation assay, HeLa cells are treated with different concentrations of compounds (0.2% DMSO final) in medium containing 10% fetal bovine serum and then stimulated with 100 ng/mL of an anti-lymphotoxin beta receptor antibody (R&D Systems) for 5 hours. In the REL-A nuclear translocation assay, HeLa cells are incubated with compounds (0.2% DMSO final) for 4.5 hours in medium containing 10% fetal bovine serum before stimulating them with 10 ng/mL tumor necrosis factor (TNF)-α (R&D Systems) for 30 minutes. Cells are fixed with 4% paraformaldehyde, permeabilized by adding 0.1% Triton X-100 in phosphate buffered saline, and then are incubated with either 2 ug/mL anti-p52 antibody (Millipore) or 400 ng/mL anti-REL-A (p65) antibody (Santa Cruz Biotechnology). Finally, the cells are incubated with an Alexa488-labeled secondary antibody (Invitrogen) and DRAQ5 DNA stain (Biostatus). Imaging is carried out using an Opera reader (Perkin Elmer) and data are analyzed with the aid of Acapella software (Perkin Elmer). The p52 or REL-Atranslocation into the nucleus is quantified by the ratio of the nuclear to cytoplasmic signal intensity. […] The compounds in listed in Table 1 have the corresponding inhibitory value (IC50 in micromolar) for NIK p52 Translocation Assay as set forth in Table 2.
(§3) The compounds in listed in Table 1 have the corresponding inhibitory values (IC50 in micromolar) for the Translocation Assays as set forth in Table 2.

Test [3] concerns p52 (NF-kB2) nuclear translocation in HeLa cells. In words: p52 (NF-kB2) nuclear translocation assay in HeLa cells, anti-lymphotoxin beta receptor antibody stimulated (non-classical NF-kB signaling), high content imaging. Type of test: cell-based. The settings on record: 100 ng/mL anti-lymphotoxin beta receptor antibody for 5 hours, read-out: p52 HeLa Transloc Assay (IC50). The method, then:
as §1, §2, §3

What is called Ki is the dissociation constant of the complex between target and ligand, obtained from inhibition or displacement. Read a high Ki as lower affinity. Usually IC50 stands for the midpoint of a concentration-inhibition curve.

SMILES strings stand for the structures. Where two headings read alike, the source gives them in different places. Where only a bound is given, the exact number is not on record here.

T1 sequence (Q99558 whole entry): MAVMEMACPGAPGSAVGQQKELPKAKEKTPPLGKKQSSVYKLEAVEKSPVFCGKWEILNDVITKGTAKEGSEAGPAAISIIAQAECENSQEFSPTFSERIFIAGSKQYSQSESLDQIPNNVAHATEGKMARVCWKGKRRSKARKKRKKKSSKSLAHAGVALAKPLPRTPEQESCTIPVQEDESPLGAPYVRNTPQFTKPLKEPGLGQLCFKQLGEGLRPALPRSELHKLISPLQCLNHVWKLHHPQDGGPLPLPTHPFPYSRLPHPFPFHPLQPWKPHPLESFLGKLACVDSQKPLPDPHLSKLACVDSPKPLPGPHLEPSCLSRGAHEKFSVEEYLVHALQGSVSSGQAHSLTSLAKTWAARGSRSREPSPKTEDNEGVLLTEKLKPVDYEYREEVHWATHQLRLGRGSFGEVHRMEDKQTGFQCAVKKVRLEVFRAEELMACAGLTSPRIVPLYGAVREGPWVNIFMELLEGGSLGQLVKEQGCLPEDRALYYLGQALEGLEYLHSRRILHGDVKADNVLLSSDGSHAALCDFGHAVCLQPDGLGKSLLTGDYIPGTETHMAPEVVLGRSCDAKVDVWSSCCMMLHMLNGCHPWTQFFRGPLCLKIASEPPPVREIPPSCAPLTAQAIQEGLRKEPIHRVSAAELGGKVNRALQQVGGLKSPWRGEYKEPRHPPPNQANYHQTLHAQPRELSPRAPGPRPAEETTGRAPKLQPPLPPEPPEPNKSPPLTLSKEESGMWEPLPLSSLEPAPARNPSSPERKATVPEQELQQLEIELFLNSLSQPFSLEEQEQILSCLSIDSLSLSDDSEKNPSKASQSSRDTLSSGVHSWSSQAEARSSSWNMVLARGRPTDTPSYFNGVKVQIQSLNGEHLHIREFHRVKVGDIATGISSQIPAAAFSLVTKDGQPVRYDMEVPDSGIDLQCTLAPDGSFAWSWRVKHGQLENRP

`CN1CC[C@@](O)(C#Cc2cccc(-c3nc(C(N)=O)cc(N4CC[C@H]4c4cccs4)n3)c2)C1=O` [Example 27, 2-[3-[2-[(3R)-3-hydroxy-1-methyl-2-oxo-pyrrolidin-3-yl]ethynyl]phenyl]-6-[(2S)-2-(2-thienyl)azetidin-1-yl]pyrimidine-4-carboxamide] gave a Ki in test [1] of 3.34 nM. Besides, the 50% inhibitory concentration (IC50) in test [2] (Homo sapiens, HeLa) was over 20000 nM; in test [3] (Homo sapiens) it was 87.2 nM.
For `CC(C)C[C@@H]1CCCN1c1cc(C(N)=O)nc(-c2cccc(C#C[C@]3(O)CCN(C)C3=O)c2)n1` [Example 28, 2-[3-[2-[(3R)-3-hydroxy-1-methyl-2-oxo-pyrrolidin-3-yl]ethynyl]phenyl]-6-[(2S)-2-isobutylpyrrolidin-1-yl] pyrimidine-4-carboxamide] the same measures were 2.38 nM, over 20000 nM and 229 nM.
On the same counts, the results for `CN1CC[C@@](O)(C#Cc2cccc(-c3nc(N[C@@H]4CCOC4)cc(C(N)=O)n3)c2)C1=O` [Example 31, 2-[3-[2-[(3R)-3-hydroxy-1-methyl-2-oxo-pyrrolidin-3-yl]ethynyl]phenyl]-6-[[(3R)-tetrahydrofuran-3-yl]amino] pyrimidine-4-carboxamide] are 0.93 nM, over 20000 nM and 479 nM.
In turn, `CN1CC[C@@](O)(C#Cc2cccc(-c3nccc(C(N)=O)n3)c2)C1=O` [Example 32, 2-[3-[2-[(3R)-3-hydroxy-1-methyl-2-oxo-pyrrolidin-3-yl]ethynyl]phenyl] pyrimidine-4-carboxamide] displayed a Ki in test [1] of 0.22 nM. Also, the 50% inhibitory concentration (IC50) is over 20000 nM in test [2] (Homo sapiens, HeLa) and 244 nM in test [3] (Homo sapiens).
For `CN1CC[C@@](O)(C#Cc2cccc(-c3nc(C(N)=O)cc(-c4ccnn4C)n3)c2)C1=O` [Example 33, 2-[3-[2-[(3R)-3-hydroxy-1-methyl-2-oxo-pyrrolidin-3-yl]ethynyl]phenyl]-6-(2-methylpyrazol-3-yl) pyrimidine-4-carboxamide] the same measures were under 0.05 nM, over 28000 nM and 36.3 nM.
In the case of `CN1CC[C@@](O)(C#Cc2cccc(-c3nc4c(c(C(N)=O)n3)CCCC4)c2)C1=O` [Example 34, 2-[3-[2-[(3R)-3-hydroxy-1-methyl-2-oxo-pyrrolidin-3-yl]ethynyl]phenyl]-5,6,7,8-tetrahydroquinazoline-4-carboxamide], the inhibition constant Ki in test [1] was found to be 1.42 nM. In addition, the half-maximal inhibitory concentration (IC50) in test [2] (Homo sapiens, HeLa) was over 20000 nM; in test [3] (Homo sapiens) it was 138 nM.
Turning to `CN1CC[C@@](O)(C#Cc2cccc(-c3nc4c(c(C(N)=O)n3)CC(C)(C)CC4)c2)C1=O` [Example 35, 2-[3-[2-[(3R)-3-hydroxy-1-methyl-2-oxo-pyrrolidin-3-yl]ethynyl]phenyl]-6,6-dimethyl-7,8-dihydro-5H-quinazoline-4-carboxamide], in test [1], the affinity corresponds to a Ki of 2.23 nM. Moreover, the IC50 is over 20000 nM in test [2] (Homo sapiens, HeLa) and 386 nM in test [3] (Homo sapiens).
On the same counts, the results for `CN1CC[C@@](O)(C#Cc2cccc(-c3nc(C(N)=O)nc4ccsc34)c2)C1=O` [Example 36, 4-[3-[2-[(3R)-3-hydroxy-1-methyl-2-oxo-pyrrolidin-3-yl]ethynyl]phenyl]thieno[3,2-d]pyrimidine-2-carboxamide] are 0.184 nM, over 20000 nM and 314 nM.
On the same counts, the results for `CN1CC[C@@](O)(C#Cc2cccc(-c3nc(C(N)=O)c4sccc4n3)c2)C1=O` [Example 37, 2-[3-[2-[(3R)-3-hydroxy-1-methyl-2-oxo-pyrrolidin-3-yl]ethynyl]phenyl]thieno[3,2-d]pyrimidine-4-carboxamide] are 0.12 nM, over 20000 nM and 13.9 nM.
For `CN1CC[C@@](O)(C#Cc2cccc(-c3nc4c(c(C(N)=O)n3)CCC4)c2)C1=O` [Example 38, 2-[3-[2-[(3R)-3-hydroxy-1-methyl-2-oxo-pyrrolidin-3-yl]ethynyl]phenyl]-6,7-dihydro-5H-cyclopenta [d]pyrimidine-4-carboxamide] the same measures were 0.19 nM, over 20000 nM and 49.1 nM.
In test [1], `CN1CC[C@@](O)(C#Cc2cccc(-c3nc(C(N)=O)c4ccn(C)c4n3)c2)C1=O` [Example 39, 2-[3-[2-[(3R)-3-hydroxy-1-methyl-2-oxo-pyrrolidin-3-yl]ethynyl]phenyl]-7-methyl-pyrrolo[2,3-d] pyrimidine-4-carboxamide] gave a Ki of 0.13 nM. Besides, the IC50 was found to be 7700 nM in test [2] (Homo sapiens, HeLa) and 20.9 nM in test [3] (Homo sapiens).
`CN1CC[C@@](O)(C#Cc2cccc(-c3nc(C(N)=O)c4cccc(F)c4n3)c2)C1=O` [Example 41, 8-fluoro-2-[3-[2-[(3R)-3-hydroxy-1-methyl-2-oxo-pyrrolidin-3-yl]ethynyl]phenyl]quinazoline-4-carboxamide] registered a Ki in test [1] of 0.22 nM. In addition, the IC50 in test [2] (Homo sapiens, HeLa) was over 20000 nM; in test [3] (Homo sapiens) it was 26.4 nM.
Regarding `CN1CC[C@@](O)(C#Cc2cccc(-c3nc(C(N)=O)c4cnn(C)c4n3)c2)C1=O` [Example 42, 6-(3-[2-[(3R)-3-hydroxy-1-methyl-2-oxopyrrolidin-3-yl]ethynyl]phenyl)-1-methyl-1H-pyrazolo[3,4-d] pyrimidine-4-carboxamide], the inhibition constant Ki in test [1] was found to be 0.1 nM. The half-maximal inhibitory concentration (IC50) in test [2] (Homo sapiens, HeLa) is over 20000 nM; in test [3] (Homo sapiens), 10.9 nM.
For `CN1CC[C@@](O)(C#Cc2cccc(-c3nc(C(N)=O)c4ccc(F)cc4n3)c2)C1=O` [Example 43, 7-fluoro-2-(3-[2-[(3R)-3-hydroxy-1-methyl-2-oxopyrrolidin-3-yl]ethynyl]phenyl)quinazoline-4-carboxamide] the same measures were 0.08 nM, over 20000 nM and 14.1 nM.
On the same counts, the results for `COc1ccc2c(C(N)=O)nc(-c3cccc(C#C[C@]4(O)CCN(C)C4=O)c3)nc2c1` [Example 44, 2-(3-[2-[(3R)-3-hydroxy-1-methyl-2-oxopyrrolidin-3-yl]ethynyl]phenyl)-7-methoxyquinazoline-4-carboxamide] are 0.11 nM, over 20000 nM and 17.5 nM.
On the same counts, the results for `CN1CC[C@@](O)(C#Cc2cccc(-c3nc(C(N)=O)cc4c3CCC4)c2)C1=O` [Example 46, 1-(3-[2-[(3R)-3-hydroxy-1-methyl-2-oxopyrrolidin-3-yl]ethynyl]phenyl)-5H,6H,7H-cyclopenta[c] pyridine-3-carboxamide] are 0.62 nM, over 20000 nM and 103 nM.
With `CN1CC[C@@](O)(C#Cc2cccc(-c3nc(C(N)=O)cc4c3ncn4C)c2)C1=O` [Example 47, 4-[3-[2-[(3R)-3-hydroxy-1-methyl-2-oxo-pyrrolidin-3-yl]ethynyl]phenyl]-1-methyl-imidazo[4,5-c] pyridine-6-carboxamide], the affinity in test [1] corresponds to a Ki of 0.94 nM. Also, the IC50 in test [2] (Homo sapiens, HeLa) is at least 20000 nM; in test [3] (Homo sapiens), 270 nM.
Turning to `CN1CC[C@@](O)(C#Cc2cccc(-c3nc(C(N)=O)cn4ccnc34)c2)C1=O` [Example 48, 8-[3-[2-[(3R)-3-hydroxy-1-methyl-2-oxo-pyrrolidin-3-yl]ethynyl]phenyl] imidazo[1,2-a]pyrazine-6-carboxamide], the affinity in test [1] (purified NIK 0.5 nM, 10 μM ATP, pH 7.2, Ki from Morrison's quadratic equation), expressed as Ki, was 0.39 nM. Besides, the half-inhibitory concentration (IC50) in test [2] is at least 20000 nM; in test [3], 122 nM.
Molecule `CN1CC[C@@](O)(C#Cc2cccc(-c3cc4cc[nH]c4c(C(N)=O)n3)c2)C1=O` [Example 49, 5-[3-[2-[(3R)-3-hydroxy-1-methyl-2-oxo-pyrrolidin-3-yl]ethynyl]phenyl]-1H-pyrrolo [2,3-c]pyridine-7-carboxamide] registered a Ki in test [1] of 0.05 nM. Also, the IC50 in test [2] (Homo sapiens, HeLa) was at least 2000 nM; in test [3] (Homo sapiens), 8.2 nM.
`CN1CC[C@@](O)(C#Cc2cccc(-c3nc(C(N)=O)nc4c3ccn4C)c2)C1=O` [Example 50, 4-[3-[2-[(3R)-3-hydroxy-1-methyl-2-oxo-pyrrolidin-3-yl]ethynyl]phenyl]-7-methyl-pyrrolo[2,3-d]pyrimidine-2-carboxamide] registered a Ki in test [1] of 1.08 nM. Further, the IC50 was at least 20000 nM in test [2] (Homo sapiens, HeLa) and 346 nM in test [3] (Homo sapiens).
On the same counts, the results for `CN1CC[C@@](O)(C#Cc2cccc(-c3cc(-n4cncn4)cc(C(N)=O)n3)c2)C1=O` [Example 51, 6-[3-[2-[(3R)-3-hydroxy-1-methyl-2-oxo-pyrrolidin-3-yl]ethynyl]phenyl]-4-(1,2,4-triazol-1-yl)pyridine-2-carboxamide] are 0.23 nM, at least 20000 nM and 129 nM.

Source of the values: patent US20160185797A1, “ALKYNYL ALCOHOLS AND METHODS OF USE” (Genentech, Inc., priority 2013, published 2016).
